In brackets after ≈: the same amount, converted by molar mass.

Common to all, as to assay type: cell-based
The subject of test [1] is Staphylococcus aureus Oxford. Briefly: MIC by agar-dilution, Staphylococcus aureus Oxford. Particulars: 10^4 CFU/spot, 37° C., 24 hours. On the procedure:
(§1) The following results were obtained on a standard in vitro test system. The activity is described in terms of the minimum inhibitory concentration (MIC) determined by the agar-dilution technique with an inoculum size of 10^4 CFU/spot. Staphylococci were tested on agar, using an inoculum of 10^4 CFU/spot and an incubation temperature of 37° C. for 24 hours—standard test conditions for the expression of methicillin resistance.

The subject of test [2] is Staphylococcus aureus Novb. Res (Novobiocin resistant). Briefly: MIC by agar-dilution, Staphylococcus aureus Novb. Res. The following applies: 10^4 CFU/spot, 37° C., 24 hours. On the procedure: as §1
Test [3] has as its system Staphylococcus aureus MRQS (methicillin resistant quinolone sensitive). Briefly: MIC by agar-dilution, Staphylococcus aureus MRQS. The following applies: 10^4 CFU/spot, 37° C., 24 hours. On the procedure: as §1
Test [4] relates to Staphylococcus aureus MRQR (methicillin resistant quinolone resistant). The test can be described thus: MIC by agar-dilution, Staphylococcus aureus MRQR. Particulars: 10^4 CFU/spot, 37° C., 24 hours. On the procedure: as §1
The subject of test [5] is Coagulase Negative Staphylococcis MS. Briefly: MIC by agar-dilution, Coagulase Negative Staphylococci MS. Particulars: 10^4 CFU/spot, 37° C., 24 hours. On the procedure: as §1
In test [6] the test system is Coagulase Negative Staphylococcis MR (methicillin resistant). The test can be described thus: MIC by agar-dilution, Coagulase Negative Staphylococci MR. The following applies: 10^4 CFU/spot, 37° C., 24 hours. On the procedure: as §1
Test [7] relates to Streptococcus pyogenes C203. Briefly: MIC by agar-dilution, Streptococcus pyogenes C203. Particulars: agar with 5% defibrinated horse blood, 10^4 CFU/spot, 37° C., 5% carbon dioxide, 48 hours. On the procedure: as §1
(§2) Streptococci and enterococci were tested on agar supplemented with 5% defibrinated horse blood, an inoculum of 10^4 CFU/spot and an incubation temperature of 37° C. in an atmosphere of 5% carbon dioxide for 48 hours—blood is required for the growth of some of the test organisms.

Another test relates to Enterococcus faecalis. The test can be described thus: MIC by agar-dilution, Enterococcus faecalis. The following applies: agar with 5% defibrinated horse blood, 10^4 CFU/spot, 37° C., 5% carbon dioxide, 48 hours. On the procedure: as §1, §2
Another test has as its system Bacillus subtilis. Briefly: MIC by agar-dilution, Bacillus subtilis. Particulars: 10^4 CFU/spot. On the procedure: as §1

With `CC(=O)NC[C@H]1CC(c2ccc(C3=CCN(C(=O)CO)CC3)cc2)C(=O)O1` (stereo partly drawn) [Example 5, 5R,3RS-5-Acetamidomethyl-3-(4-[1-hydroxyacetyl-1,2,5,6-tetrahydropyrid-4-yl]phenyl)dihydrofuran-2(3H)-one], the MIC (usually the smallest concentration in the dilution series that meets the test's criterion for growth inhibition) is 4.0 µg/mL (≈ 10.7 µM) in test [1]; 4.0 µg/mL (≈ 10.7 µM) in test [2]; 4.0 µg/mL (≈ 10.7 µM) in test [3]; 8.0 µg/mL (≈ 21.5 µM) in test [4]; 2.0 µg/mL (≈ 5.37 µM) in [5]; 4.0 µg/mL (≈ 10.7 µM) in test [6]. The MIC came to 8.0 µg/mL (≈ 21.5 µM) in test [7], 8.0 µg/mL (≈ 21.5 µM) with Enterococcus faecalis and 4.0 µg/mL (≈ 10.7 µM) with Bacillus subtilis.

Values taken from patent US6350775B1, “3-phenyl-furan-(5H)-2-one and dihydrofuran-2-one derivatives as antibacterial agents” (priority 1996, dated 2002).
